Data as given in patent US11000033B2, “Ketone or oxime compound, and herbicide” (NISSAN CHEMICAL CORPORATION, priority 2014, dated 2021).

Key:
Format in all cases: in vivo
[1] = tested on: Abutilon theophrasti; experiment: Test Example 5: herbicidal effect by foliage application, plastic box (symbol M); conditions: 320 g/ha, 3 weeks after application
In short: (§1)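 Leaf-applied emulsion, water-diluted to a preset herbicide dose, on two-week-old seedlings raised in a 25° C. to 30° C. greenhouse; injury rated at 3 weeks using earlier criteria.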

[2] = tested on: rice plant; experiment: Test Example 5: effect on crop by foliage application, plastic box (symbol b); conditions: 320 g/ha, 3 weeks after application
In short: (§2)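 Diluvial soil, sterilized and boxed (21 × 13 × 7 cm), received spot-sown seed covered by about 1.5 cm soil; plants were then greenhouse-grown at 25–30° C.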

[3] = tested on: soybean; experiment: Test Example 5: effect on crop by foliage application, plastic box (symbol d); conditions: 320 g/ha, 3 weeks after application
In short: as §2

[4] = tested on: wheat; experiment: Test Example 5: effect on crop by foliage application, plastic box (symbol e); conditions: 320 g/ha, 3 weeks after application
In short: as §2

[5] = tested on: Setaria viridis; experiment: Test Example 5: herbicidal effect by foliage application, plastic box (symbol G); conditions: 320 g/ha, 3 weeks after application
In short: as §1

[6] = tested on: Amaranthus retroflexus; experiment: Test Example 5: herbicidal effect by foliage application, plastic box (symbol N); conditions: 320 g/ha, 3 weeks after application
In short: as §1

[7] = tested on: beet; experiment: Test Example 5: effect on crop by foliage application, plastic box (symbol f); conditions: 320 g/ha, 3 weeks after application
In short: as §2

[8] = tested on: Chenopodium album; experiment: Test Example 5: herbicidal effect by foliage application, plastic box (symbol O); conditions: 320 g/ha, 3 weeks after application
In short: as §1

[9] = tested on: Galium spurium; experiment: Test Example 5: herbicidal effect by foliage application, plastic box (symbol Q); conditions: 320 g/ha, 3 weeks after application
Text: Herbicidal Effect Test by Foliage Application
Sterilized diluvial soil was placed in a plastic box having a length of 21 cm, a width of 13 cm, and a depth of 7 cm. Each of the seeds of Digitaria ciliaris, Setaria viridis, Echinochloa crus-galli var. crus-galli, Avena fatua, Alopecurus myosuroides, Lolium multiflorum Lam., Apera spica-venti, Abutilon theophrasti, Amaranthus retroflexus, Chenopodium album, Stellaria media, Galium spurium, Veronica persica, corn, soybean, rice plant, wheat, beet, and rapeseed was sowed in a spot-like manner and was covered with the soil of a thickness of about 1.5 cm. Thereafter, the plants were grown in the greenhouse of 25° C. to 30° C. After the plants were grown for 14 days, the emulsion agent of the compound of the present invention prepared in accordance with Formulation Example 2 was diluted with water so as to be a predetermined herbicide amount and the diluted emulsion agent was uniformly applied to a foliage part with a small-size spray. 3 weeks later from the herbicide application, the effect to each plant was investigated in accordance with the criteria of Test Example 1.

[10] = tested on: Veronica persica; experiment: Test Example 5: herbicidal effect by foliage application, plastic box (symbol R); conditions: 320 g/ha, 3 weeks after application
In short: as §1

[11] = tested on: directly sowed rice plant; experiment: Test Example 3: effect on crop by foliage application, Wagner pot (symbol b); conditions: application herbicide amount 320 g/ha
In short: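 Plants are raised from seed in flooded paddy conditions: water stands 0.1–0.5 cm over alluvial soil, and the pot is kept in a greenhouse at 25–30 °C. Species sown are barnyardgrass (E. crus-galli var. crus-galli), Leptochloa chinensis, Cyperus difformis and rice.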

[12] = tested on: rapeseed; experiment: Test Example 5: effect on crop by foliage application, plastic box (symbol g); conditions: 320 g/ha, 3 weeks after application
In short: as §2

[13] = tested on: Echinochloa crus-galli var. crus-galli; experiment: Test Example 3: herbicidal effect by foliage application, Wagner pot (symbol H); conditions: application herbicide amount 320 g/ha
In short: (§3)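 Rating at 3 weeks post-spray, by defined criteria. Treatment: emulsion diluted with water to a predetermined amount, applied evenly to foliage of 14-day-old plants raised in alluvial soil flooded 0.1–0.5 cm deep at 25–30 °C, rice co-sown.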

[14] = tested on: corn; experiment: Test Example 5: effect on crop by foliage application, plastic box (symbol c); conditions: 320 g/ha, 3 weeks after application
In short: as §2

[15] = tested on: Leptochloa chinensis; experiment: Test Example 3: herbicidal effect by foliage application, Wagner pot (symbol D); conditions: application herbicide amount 320 g/ha
In short: as §3

[16] = tested on: Digitaria ciliaris; experiment: Test Example 5: herbicidal effect by foliage application, plastic box (symbol F); conditions: 320 g/ha, 3 weeks after application
In short: as §1

[17] = tested on: Lolium multiflorum Lam.; experiment: Test Example 5: herbicidal effect by foliage application, plastic box (symbol K); conditions: 320 g/ha, 3 weeks after application
In short: as §1

[18] = tested on: Avena fatua; experiment: Test Example 5: herbicidal effect by foliage application, plastic box (symbol I); conditions: 320 g/ha, 3 weeks after application
In short: as §1

[19] = tested on: Cyperus difformis; experiment: Test Example 3: herbicidal effect by foliage application, Wagner pot (symbol E); conditions: application herbicide amount 320 g/ha
In short: as §3

[20] = tested on: Alopecurus myosuroides; experiment: Test Example 5: herbicidal effect by foliage application, plastic box (symbol J); conditions: 320 g/ha, 3 weeks after application
In short: as §1

[21] = tested on: Stellaria media; experiment: Test Example 5: herbicidal effect by foliage application, plastic box (symbol P); conditions: 320 g/ha, 3 weeks after application
In short: as §1

[22] = tested on: Apera spica-venti; experiment: Test Example 5: herbicidal effect by foliage application, plastic box (symbol L); conditions: 320 g/ha, 3 weeks after application
In short: as §1

[23] = tested on: Echinochloa crus-galli var. crus-galli; experiment: Test Example 5: herbicidal effect by foliage application, plastic box (symbol H); conditions: 320 g/ha, 3 weeks after application
In short: as §1

## CC(CC1CC(O)=C(c2c(C)cc(C)cc2C)C1=O)=NOCCN (stereo not drawn) [1-132]
[1]
  M: Abutilon theophrasti, herbicidal effect (criteria 0-5): 0 (Herbicidal ratio of 5% or lower (almost no effect))
[2]
  b: directly sowed rice plant, effect on crop (criteria 0-5): 1 (Herbicidal ratio of 5% or higher and lower than 20%)
[3]
  d: soybean, effect on crop (criteria 0-5): 0 (Herbicidal ratio of 5% or lower (almost no effect))
[4]
  e: wheat, effect on crop (criteria 0-5): 0 (Herbicidal ratio of 5% or lower (almost no effect))
[5]
  G: Setaria viridis, herbicidal effect (criteria 0-5): 0 (Herbicidal ratio of 5% or lower (almost no effect))
[6]
  N: Amaranthus retroflexus, herbicidal effect (criteria 0-5): 0 (Herbicidal ratio of 5% or lower (almost no effect))
[7]
  f: beet, effect on crop (criteria 0-5): 0 (Herbicidal ratio of 5% or lower (almost no effect))
[8]
  O: Chenopodium album, herbicidal effect (criteria 0-5): 0 (Herbicidal ratio of 5% or lower (almost no effect))
[9]
  Q: Galium spurium, herbicidal effect (criteria 0-5): 0 (Herbicidal ratio of 5% or lower (almost no effect))
[10]
  R: Veronica persica, herbicidal effect (criteria 0-5): 0 (Herbicidal ratio of 5% or lower (almost no effect))
[11]
  effect on crop b (directly sowed rice plant), grade 0-5: 1 (Herbicidal ratio of 5% or higher and lower than 20%)
[12]
  g: rapeseed, effect on crop (criteria 0-5): 3 (Herbicidal ratio of 40% or higher and lower than 70%)
[13]
  herbicidal effect on H (Echinochloa crus-galli var. crus-galli), grade 0-5: 2 (Herbicidal ratio of 20% or higher and lower than 40%)
[14]
  c: corn, effect on crop (criteria 0-5): 0 (Herbicidal ratio of 5% or lower (almost no effect))
[15]
  herbicidal effect on D (Leptochloa chinensis), grade 0-5: 1 (Herbicidal ratio of 5% or higher and lower than 20%)
[16]
  F: Digitaria ciliaris, herbicidal effect (criteria 0-5): 0 (Herbicidal ratio of 5% or lower (almost no effect))
[17]
  K: Lolium multiflorum Lam., herbicidal effect (criteria 0-5): 3 (Herbicidal ratio of 40% or higher and lower than 70%)
[18]
  I: Avena fatua, herbicidal effect (criteria 0-5): 1 (Herbicidal ratio of 5% or higher and lower than 20%)
[19]
  herbicidal effect on E, grade 0-5: 0 (Herbicidal ratio of 5% or lower (almost no effect))
[20]
  J: Alopecurus myosuroides, herbicidal effect (criteria 0-5): 2 (Herbicidal ratio of 20% or higher and lower than 40%)
[21]
  P: Stellaria media, herbicidal effect (criteria 0-5): 0 (Herbicidal ratio of 5% or lower (almost no effect))
[22]
  L: Apera spica-venti, herbicidal effect (criteria 0-5): 1 (Herbicidal ratio of 5% or higher and lower than 20%)
[23]
  H: Echinochloa crus-galli var. crus-galli, herbicidal effect (criteria 0-5): 0 (Herbicidal ratio of 5% or lower (almost no effect))

## CON=C(C)CC1CC(OC)=C(c2c(C)cc(C=Cc3ccccc3)cc2C)C1=O (stereo not drawn) [6-068]
[1]
  M: Abutilon theophrasti, herbicidal effect (criteria of Test Example 1): 0 (Herbicidal ratio of 5% or lower (almost no effect))
[2]
  b: directly sowed rice plant, effect on crop (criteria of Test Example 1): 1 (Herbicidal ratio of 5% or higher and lower than 20%)
[3]
  d: soybean, effect on crop (criteria of Test Example 1): 0 (Herbicidal ratio of 5% or lower (almost no effect))
[4]
  e: wheat, effect on crop (criteria of Test Example 1): 0 (Herbicidal ratio of 5% or lower (almost no effect))
[5]
  G: Setaria viridis, herbicidal effect (criteria of Test Example 1): 3 (Herbicidal ratio of 40% or higher and lower than 70%)
[6]
  N: Amaranthus retroflexus, herbicidal effect (criteria of Test Example 1): 0 (Herbicidal ratio of 5% or lower (almost no effect))
[7]
  f: beet, effect on crop (criteria of Test Example 1): 0 (Herbicidal ratio of 5% or lower (almost no effect))
[8]
  O: Chenopodium album, herbicidal effect (criteria of Test Example 1): 0 (Herbicidal ratio of 5% or lower (almost no effect))
[9]
  Q: Galium spurium, herbicidal effect (criteria of Test Example 1): 0 (Herbicidal ratio of 5% or lower (almost no effect))
[10]
  R: Veronica persica, herbicidal effect (criteria of Test Example 1): 0 (Herbicidal ratio of 5% or lower (almost no effect))
[11]
  effect on crop b (directly sowed rice plant), grade 0-5: 0 (Herbicidal ratio of 5% or lower (almost no effect))
[12]
  g: rapeseed, effect on crop (criteria of Test Example 1): 2 (Herbicidal ratio of 20% or higher and lower than 40%)
[13]
  herbicidal effect on H (Echinochloa crus-galli var. crus-galli), grade 0-5: 0 (Herbicidal ratio of 5% or lower (almost no effect))
[14]
  c: corn, effect on crop (criteria of Test Example 1): 4 (Herbicidal ratio of 70% or higher and lower than 90%)
[15]
  herbicidal effect on D (Leptochloa chinensis), grade 0-5: 2 (Herbicidal ratio of 20% or higher and lower than 40%)
[16]
  F: Digitaria ciliaris, herbicidal effect (criteria of Test Example 1): 0 (Herbicidal ratio of 5% or lower (almost no effect))
[17]
  K: Lolium multiflorum Lam., herbicidal effect (criteria of Test Example 1): 0 (Herbicidal ratio of 5% or lower (almost no effect))
[18]
  I: Avena fatua, herbicidal effect (criteria of Test Example 1): 0 (Herbicidal ratio of 5% or lower (almost no effect))
[19]
  herbicidal effect on E, grade 0-5: 0 (Herbicidal ratio of 5% or lower (almost no effect))
[20]
  J: Alopecurus myosuroides, herbicidal effect (criteria of Test Example 1): 0 (Herbicidal ratio of 5% or lower (almost no effect))
[21]
  P: Stellaria media, herbicidal effect (criteria of Test Example 1): 2 (Herbicidal ratio of 20% or higher and lower than 40%)
[22]
  L: Apera spica-venti, herbicidal effect (criteria of Test Example 1): 0 (Herbicidal ratio of 5% or lower (almost no effect))
[23]
  H: Echinochloa crus-galli var. crus-galli, herbicidal effect (criteria of Test Example 1): 3 (Herbicidal ratio of 40% or higher and lower than 70%)

## CCOC(=O)C(C(=O)C(C)C)C1CC(O)=C(c2c(C)cc(Br)cc2C)C1=O (mixture of isomers) [10-001]
[1]
  M: Abutilon theophrasti, herbicidal effect grade: 0 (Herbicidal ratio of 5% or lower (almost no effect))
[2]
  b: directly sowed rice plant, effect on crop grade: 2 (Herbicidal ratio of 20% or higher and lower than 40%)
[3]
  d: soybean, effect on crop grade: 0 (Herbicidal ratio of 5% or lower (almost no effect))
[4]
  e: wheat, effect on crop grade: 0 (Herbicidal ratio of 5% or lower (almost no effect))
[5]
  G: Setaria viridis, herbicidal effect grade: 2 (Herbicidal ratio of 20% or higher and lower than 40%)
[6]
  N: Amaranthus retroflexus, herbicidal effect grade: 0 (Herbicidal ratio of 5% or lower (almost no effect))
[7]
  f: beet, effect on crop grade: 0 (Herbicidal ratio of 5% or lower (almost no effect))
[8]
  O: Chenopodium album, herbicidal effect grade: 0 (Herbicidal ratio of 5% or lower (almost no effect))
[9]
  Q: Galium spurium, herbicidal effect grade: 0 (Herbicidal ratio of 5% or lower (almost no effect))
[10]
  R: Veronica persica, herbicidal effect grade: 0 (Herbicidal ratio of 5% or lower (almost no effect))
[11]; Table 24
  b (directly sowed rice plant) effect on crop grade: 3 (Herbicidal ratio of 40% or higher and lower than 70%)
[12]
  g: rapeseed, effect on crop grade: 0 (Herbicidal ratio of 5% or lower (almost no effect))
[13]; Table 24
  H (Echinochloa crus-galli var. crus-galli) herbicidal effect grade: 5 (Herbicidal ratio of 90% or more (almost completely withered))
[14]
  c: corn, effect on crop grade: 1 (Herbicidal ratio of 5% or higher and lower than 20%)
[15]; Table 24
  D (Leptochloa chinensis) herbicidal effect grade: 4 (Herbicidal ratio of 70% or higher and lower than 90%)
[16]
  F: Digitaria ciliaris, herbicidal effect grade: 3 (Herbicidal ratio of 40% or higher and lower than 70%)
[17]
  K: Lolium multiflorum Lam., herbicidal effect grade: 3 (Herbicidal ratio of 40% or higher and lower than 70%)
[18]
  I: Avena fatua, herbicidal effect grade: 1 (Herbicidal ratio of 5% or higher and lower than 20%)
[19]; Table 24
  E herbicidal effect grade: 0 (Herbicidal ratio of 5% or lower (almost no effect))
[20]
  J: Alopecurus myosuroides, herbicidal effect grade: 1 (Herbicidal ratio of 5% or higher and lower than 20%)
[21]
  P: Stellaria media, herbicidal effect grade: 0 (Herbicidal ratio of 5% or lower (almost no effect))
[22]
  L: Apera spica-venti, herbicidal effect grade: 0 (Herbicidal ratio of 5% or lower (almost no effect))
[23]
  H: Echinochloa crus-galli var. crus-galli, herbicidal effect grade: 4 (Herbicidal ratio of 70% or higher and lower than 90%)
